Measured values taken from patent EP0088602A2, “Microbiological oxidation process” (EXXON RESEARCH AND ENGINEERING COMPANY, priority 1982, dated 1983).
Where “and” joins values, the source holds several entries; their conditions need not be identical. Equal values may be shown once. Read-outs that look alike come from different tables or passages of the source.

What was measured:
[1] = test system: Soluble Methane Monooxygenase; test: Effect of potential inhibitors on propylene oxidation by the soluble S(80) fraction (Example 9); assay type: biochemical, Methylobacterium organophilum (CRL.26)
Procedure: (§1) The vials were incubated at 35 °C on a reciprocating water bath shaker at 50 oscillations per minute. […]
[…] Specific activities were expressed as nmoles of product formed per min. per mg. of protein, with the higher number representing better conversion. With each substrate, control experiments were conducted in the absence of NADH2, in the absence of oxygen, and using boiled extracts.
[…] The column temperature was maintained isothermally between 80 °C and 200°C with helium carrier gas flow rates of 20-40 ml per min. The amount of product formed was estimated from peak areas using a standard graph constructed using authentic compounds.
(§2) Duplicate measurements were carried out for each substrate.

[2] = test system: Methane Monooxygenase from Methylobacterium sp. CRL.26; test: Hydroxylation of alkanes / epoxidation of alkenes with NADH2 regenerated by formaldehyde dehydrogenase (Example 12, Table XV); assay type: biochemical
Procedure: (§3) The vials were incubated at 35 °C on a reciprocating water bath shaker at 50 oscillations per minute. The gaseous phase of the vials was evacuated by vacuum and replaced with a 1 to 1 by volume gaseous mixture of the alkane substrate indicated in Table III to oxygen, at which point the reaction was initiated.
(§4) The rate of oxidation of the alkanes was measured by injecting 1-2 µ 1 samples of the reaction mixture into a gas chromatograph immediately after addition of substrate (zero time) and after 5 and 10 min. of incubation. Specific activities were expressed as nmoles of product formed per min. per mg. of protein, with the higher number representing better conversion. With each substrate, control experiments were conducted in the absence of NADH2, in the absence of oxygen, and using boiled extracts.
(§5) The alcohol products were identified and estimated by retention time comparisons and co-chromatography with authentic standards using flame-ionization gas chromatography. The column temperature was maintained isothermally between 80 °C and 200°C with helium carrier gas flow rates of 20-40 ml per min. The amount of product formed was estimated from peak areas using a standard graph constructed using authentic compounds.
Duplicate measurements were carried out for each substrate. Protein concentrations in cellular fractions were estimated with Folin Ciocalteu reagent as described by O.H. Lowry et al., J. Biol. Chem., 193, 265 (1951), using bovine serum albumin as a standard.

[3] = test system: Soluble Methane Monooxygenase from Methylobacterium organophilum (ATCC 27,886); test: Hydroxylation of alkanes / epoxidation of alkenes with NADH2 regenerated by formaldehyde dehydrogenase (Example 21); assay type: biochemical
Procedure: as §3, with “35°C” for “35 °C”, “minute..” for “minute.”, “gaseous mixture consisting of 1:1” for “1 to 1”, “oxygen:the” for “gaseous mixture of the”, “XVIII,” for “III to oxygen,”
(§6) The rate of oxidation of the alkane substrates was measured either by estimation of products formed or by amount of substrate utilized from the gas or liquid phase. In the former case, 1-2 µ 1 samples of the reaction mixture were injected into a gas chromatograph immediately after addition of substrate (zero time) and after 4 and 8 min. of incubation. Specific activities were expressed as nmoles of product formed per min. per mg of protein, with the higher number representing better conversion. If substrate utilization was the measure of oxidation rate, […] of liquid or 50 Al of gas was injected into the gas chromatograph at zero time and after 4 and 8 min. of incubation of the reaction mixture at 35°C, and specific activities were expressed as the amount of substrate utilized per min. per mg. of protein. Regardless of the procedure employed, control experiments were conducted for each substrate in the absence of NADH2, in the absence of oxygen, and using boiled extracts.
as §5, with “80°C” for “80 °C”, “130°C” for “200°C”
(§7) Duplicate measurements were carried out for each substrate. Protein concentrations in cellular fractions were estimated with Folin Ciocalteu reagent as described by O.H. Lowry et al., supra, using bovine serum albumin as a standard.

[4] = test system: Soluble Methane Monooxygenase from Methylobacterium organophilum (ATCC 27,886); test: Oxidation of alkanes/alkenes with NADH2 regenerated by secondary alcohol dehydrogenase (Example 22); assay type: biochemical
Procedure: as §3, with “35°C” for “35 °C”, “minute..” for “minute.”, “gaseous mixture consisting of 1:1” for “1 to 1”, “oxygen:the” for “gaseous mixture of the”, “XVIII,” for “III to oxygen,”
as §6
as §5, with “80°C” for “80 °C”, “130°C” for “200°C”
as §7

[5] = biological target: T1, soluble methane monooxygenase from Methylococcus capsulatus (Bath) (Methylococcus capsulatus, UniProt P22869); assay type: biochemical; set-up: host or cells: soluble fraction of Methylococcus capsulatus Strain Bath; settings: comparison with CRL.26 in Example 9
[6] = test system: Secondary Alcohol Dehydrogenase; test: Dehydrogenation of the secondary alcohol in the coupled reaction (Example 22); assay type: biochemical, yeast Pichia sp.; settings: NAD^+
Procedure: The procedure of Example 15 was followed using 1.0 ml of a reaction mixture consisting of 50 µ moles potassium phosphate buffer at pH 7.0, 10 µ moles NAD^+, 10 µ moles secondary alcohol (either 2-butanol or 2-propanol), and, as the remainder, secondary alcohol dehydrogenase from yeast Pichia sp. and the soluble S(80) fraction obtained as described in Example 14. The dehydrogenase was previously purified as described in Patel et al., Eur. J. Biochem., 101, 401 (1979).

[7] = biological target: T1, soluble methane monooxygenase from Methylococcus capsulatus (Bath); settings: cited from earlier work
[8] = biological target: soluble methane monooxygenase from Methylosinus trichosporium (OB3b) (Methylosinus trichosporium, UniProt P27353); settings: cited from earlier work
[9] = test system: Soluble Methane Monooxygenase from Methylobacterium organophilum (ATCC 27,886); test: Oxidation of alkanes/alkenes with NADH2 regenerated by formate and NAD+ (Example 20); assay type: biochemical
Procedure: as §3, with “35°C” for “35 °C”, “minute..” for “minute.”, “gaseous mixture consisting of 1:1” for “1 to 1”, “oxygen:the” for “gaseous mixture of the”, “XVIII,” for “III to oxygen,”
as §6
as §5, with “80°C” for “80 °C”, “130°C” for “200°C”
as §7

[10] = test system: Soluble Methane Monooxygenase; test: Effect of various cofactor systems on propylene oxidation by the soluble S(80) fraction (Examples 7, 11); assay type: biochemical, Methylobacterium organophilum (CRL.26); settings: propylene substrate; for Specific Activity: cofactor system at 2.5 mM; for suitability as cofactor system / electron donor (in words): replacing NADH2
Procedure: as §1, §4, §5, §2

[11] = test system: soluble methane monooxygenase; test: Other electron donors in place of NADH2 (Example 23); assay type: biochemical, Methylobacterium organophilum (ATCC 27,886); settings: as electron donor replacing NADH2 in the procedure of Example 15
Procedure: as §3, with “35°C” for “35 °C”, “minute..” for “minute.”, “gaseous mixture consisting of 1:1” for “1 to 1”, “oxygen:the” for “gaseous mixture of the”, “XVIII,” for “III to oxygen,”
as §6

[12] = inhibitor 1 mM, incubated at 0°C for 15 min, propylene substrate, percentage of control (100%) containing no inhibitor
[13] = inhibitor 1 mM, incubated at 0°C for 15 min, propylene substrate, percentage of control containing no inhibitor
[14] = inhibitor 0.1 mM, incubated at 0°C for 15 min, propylene substrate, percentage of control (100%) containing no inhibitor
[15] = inhibitor 0.1 mM, incubated at 0°C for 15 min, propylene substrate, percentage of control containing no inhibitor

T1 sequence (P22869 whole entry): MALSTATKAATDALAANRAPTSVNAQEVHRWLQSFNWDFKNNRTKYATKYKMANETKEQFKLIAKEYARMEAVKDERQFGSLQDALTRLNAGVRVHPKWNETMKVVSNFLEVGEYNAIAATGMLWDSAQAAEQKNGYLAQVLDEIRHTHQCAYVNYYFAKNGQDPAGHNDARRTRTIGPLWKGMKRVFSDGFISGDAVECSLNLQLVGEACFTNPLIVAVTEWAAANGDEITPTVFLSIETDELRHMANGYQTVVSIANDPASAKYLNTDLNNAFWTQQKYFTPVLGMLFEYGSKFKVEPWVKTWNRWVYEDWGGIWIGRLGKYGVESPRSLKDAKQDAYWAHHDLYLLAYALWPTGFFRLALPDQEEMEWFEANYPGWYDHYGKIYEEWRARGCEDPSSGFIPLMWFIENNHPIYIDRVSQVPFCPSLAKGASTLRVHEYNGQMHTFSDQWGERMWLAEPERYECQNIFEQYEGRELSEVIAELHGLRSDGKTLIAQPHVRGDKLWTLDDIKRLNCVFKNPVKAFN
T1 sequence (P18798 whole entry, further chain): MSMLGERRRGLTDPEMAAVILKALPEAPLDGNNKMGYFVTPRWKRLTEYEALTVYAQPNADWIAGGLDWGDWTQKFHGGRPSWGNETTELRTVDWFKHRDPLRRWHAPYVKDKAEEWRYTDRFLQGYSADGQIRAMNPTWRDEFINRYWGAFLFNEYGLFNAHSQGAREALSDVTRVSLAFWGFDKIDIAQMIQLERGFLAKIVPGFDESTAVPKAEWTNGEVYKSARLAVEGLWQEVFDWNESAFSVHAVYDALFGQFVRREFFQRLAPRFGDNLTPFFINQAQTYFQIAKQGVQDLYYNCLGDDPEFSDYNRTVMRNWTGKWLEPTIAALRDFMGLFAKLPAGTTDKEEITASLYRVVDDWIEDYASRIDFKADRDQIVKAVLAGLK
T1 sequence (P11987 whole entry, further chain): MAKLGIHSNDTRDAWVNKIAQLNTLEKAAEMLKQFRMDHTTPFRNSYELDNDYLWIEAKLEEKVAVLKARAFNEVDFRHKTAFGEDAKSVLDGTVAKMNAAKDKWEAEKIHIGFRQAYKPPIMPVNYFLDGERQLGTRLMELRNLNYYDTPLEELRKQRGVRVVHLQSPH
soluble methane monooxygenase from Methylosinus trichosporium (OB3b), sequence (P27354 whole entry): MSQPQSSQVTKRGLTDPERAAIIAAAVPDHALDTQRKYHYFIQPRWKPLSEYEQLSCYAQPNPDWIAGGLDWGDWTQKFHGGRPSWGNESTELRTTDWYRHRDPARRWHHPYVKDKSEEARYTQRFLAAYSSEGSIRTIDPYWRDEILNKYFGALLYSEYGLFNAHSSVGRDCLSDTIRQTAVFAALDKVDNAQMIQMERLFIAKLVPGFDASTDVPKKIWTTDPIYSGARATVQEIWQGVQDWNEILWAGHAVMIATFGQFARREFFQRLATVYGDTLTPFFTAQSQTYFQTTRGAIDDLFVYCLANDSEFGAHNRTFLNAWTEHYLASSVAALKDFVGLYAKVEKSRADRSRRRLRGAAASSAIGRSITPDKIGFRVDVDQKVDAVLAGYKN
soluble methane monooxygenase from Methylosinus trichosporium (OB3b), sequence (P27355 whole entry, further chain): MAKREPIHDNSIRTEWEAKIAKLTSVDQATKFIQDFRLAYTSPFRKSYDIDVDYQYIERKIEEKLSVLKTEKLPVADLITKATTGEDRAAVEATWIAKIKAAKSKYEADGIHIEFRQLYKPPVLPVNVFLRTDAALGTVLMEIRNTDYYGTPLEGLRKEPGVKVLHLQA
soluble methane monooxygenase from Methylosinus trichosporium (OB3b), sequence (P27353 whole entry): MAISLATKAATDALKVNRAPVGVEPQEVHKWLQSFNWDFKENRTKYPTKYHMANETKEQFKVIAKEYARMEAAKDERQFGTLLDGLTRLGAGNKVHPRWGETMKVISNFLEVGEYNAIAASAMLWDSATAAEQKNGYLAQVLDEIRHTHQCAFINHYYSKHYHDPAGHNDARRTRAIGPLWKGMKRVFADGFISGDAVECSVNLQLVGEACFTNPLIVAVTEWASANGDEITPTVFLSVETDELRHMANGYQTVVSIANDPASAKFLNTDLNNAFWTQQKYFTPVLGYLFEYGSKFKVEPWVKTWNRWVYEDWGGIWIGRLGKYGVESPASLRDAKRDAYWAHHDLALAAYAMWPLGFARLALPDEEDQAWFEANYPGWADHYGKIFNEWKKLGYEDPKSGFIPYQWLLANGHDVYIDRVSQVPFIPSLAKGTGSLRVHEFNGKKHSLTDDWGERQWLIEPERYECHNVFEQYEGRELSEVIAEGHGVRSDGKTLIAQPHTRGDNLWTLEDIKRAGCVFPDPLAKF

Molecule: O=C(O)c1cc(SSc2ccc([N+](=O)[O-])c(C(=O)O)c2)ccc1[N+](=O)[O-] [5,5'-dithiobis-2-nitrobenzoate]
- inhibition of soluble methane monooxygenase activity (in words) [1]: inhibit
- Activity (%) [1, 12]: 38%
- Inhibition (%) [1, 13]: 62%

Molecule: CCN1C(=O)C=CC1=O [N-Ethylmaleimide]
- Activity (%) [1, 12]: 102%
- Inhibition (%) [1, 13]: 0%

Molecule: CCCC [Butane]
- Rate of Product Formation ([2]; pH 7): 250 nmoles/min/mg protein and 150 nmoles/min/mg protein
- Rate of Product Formation ([3]; pH 7): 20 nmoles/ min/mg of protein and 10 nmoles/ min/mg of protein
- Rate of Product Formation [4]: 15 nmoles/ min/mg of protein

Molecule: CC [Ethane]
- Rate of Product Formation ([2]; product Ethanol, NAD^+, formaldehyde, reduced glutathione, formaldehyde dehydrogenase, pH 7.0): 145 nmoles/min/mg protein

Molecule: c1cnc2c(c1)ccc1cccnc12 [1,10-Phenanthroline]
- inhibition of soluble methane monooxygenase activity (in words) [1]: not inhibited
- Activity (%) [1, 12]: 67%
- Inhibition (%) [1, 13]: 33%
- inhibited activity of Methylobacterium organophilum (CRL.26) ([1]; statement in the text of Example 9): about 30%
- inhibition of the activity of Methylococcus capsulatus (Bath) (in words) [5]: did not inhibit

Molecule: Acriflavin
- inhibition of soluble methane monooxygenase activity (in words) [1]: inhibit
- Activity (%) [1, 14]: 71%
- Inhibition (%) [1, 15]: 29%

Molecule: 2-Butanol
- Rate of Product Formation ([4]; product Acetone, substrates Propane and 2-Butanol, NAD^+, secondary alcohol dehydrogenase): 18 nmoles/ min/mg of protein
- Rate of Product Formation ([6]; product 2-Butanone, substrates Ethane and 2-Butanol): 48 nmoles/ min/mg of protein
- Rate of Product Formation ([6]; product 2-Butanone, substrates Ethylene and 2-Butanol): 45 nmoles/ min/mg of protein
- Rate of Product Formation ([6]; product 2-Butanone, substrates Methane and 2-Butanol): 50 nmoles/ min/mg of protein
- Rate of Product Formation ([6]; product 2-Butanone, substrates Propane and 2-Butanol): 45 nmoles/ min/mg of protein
- Rate of Product Formation ([6]; product 2-Butanone, substrates Propylene and 2-Butanol): 50 nmoles/ min/mg of protein

Molecule: C=C(C)C [Isobutylene]
- Rate of Product Formation ([4]; product Epoxyisobutylene, substrates Isobutylene and 2-Propanol, NAD^+, secondary alcohol dehydrogenase): 29 nmoles/ min/mg of protein

Molecule: Oc1cccc2cccnc12 [8-Hydroxyquinoline]
- Activity (%) [1]: 117%
- Inhibition (%) [1]: 0%
- inhibition of soluble methane monooxygenase activity (in words) [1]: not inhibitory
- inhibition of soluble methane monooxygenase (in words) [7]: strongly inhibits
- inhibition of soluble methane monooxygenase (in words) [8]: strongly inhibits

Molecule: CCC [Propane]
- Rate of Product Formation ([2]; product Propan-1-ol, NAD^+, formaldehyde, reduced glutathione, formaldehyde dehydrogenase, pH 7.0): 60 nmoles/min/mg protein
- Rate of Product Formation ([2]; product Propan-2-ol, NAD^+, formaldehyde, reduced glutathione, formaldehyde dehydrogenase, pH 7.0): 95 nmoles/min/mg protein

Molecule: C=CC [Propylene]
- uninhibited rate of propylene oxidation ([1]; no inhibitor, substrate propylene): (b) The uninhibited rate of propylene oxidation was 100 nmoles of propylene oxide produced/min/mg of protein.
- Rate of Product Formation ([2]; product Propylene Oxide, NAD^+, formaldehyde, reduced glutathione, formaldehyde dehydrogenase, pH 7.0): 250 nmoles/min/mg protein
- Rate of Product Formation ([9]; product Propylene Oxide, NAD^+ and sodium formate, pH 7.0): 54 nmoles/ min/mg of protein
- Rate of Product Formation ([3]; product Propylene Oxide, NAD^+, reduced glutathione, formaldehyde, formaldehyde dehydrogenase, pH 7.0): 52 nmoles/ min/mg of protein
- Rate of Product Formation ([4]; product Propylene oxide, substrates Propylene and 2-Butanol, NAD^+, secondary alcohol dehydrogenase): 48 nmoles/ min/mg of protein

Molecule: NC(=O)C1=CN([C@@H]2O[C@H](COP(=O)(O)OP(=O)(O)OC[C@H]3O[C@@H](n4cnc5c(N)ncnc54)[C@H](OP(=O)(O)O)[C@@H]3O)[C@@H](O)[C@H]2O)C=CC1 [NADPH2, nicotinamide adenine dinucleotide phosphate in the reduced form]
- Specific Activity [10]: 70 nmoles/min/mg of protein
- suitability as cofactor system / electron donor (in words) [10]: suitable

Molecule: C=CCC [1-Butene]
- Rate of Product Formation ([2]; pH 7): 180 nmoles/min/mg protein
- Rate of Product Formation ([9]; pH 7): 35 nmoles/ min/mg of protein

Molecule: O=C(O)c1cc[c]([Hg+])cc1.[OH-] [p-Hydroxymercuribenzoate]
- Activity (%) [1, 14]: 100%
- Inhibition (%) [1, 15]: 0%

Molecule: NC(=O)C1=CN([C@@H]2O[C@H](COP(=O)(O)OP(=O)(O)OC[C@H]3O[C@@H](n4cnc5c(N)ncnc54)[C@H](O)[C@@H]3O)[C@@H](O)[C@H]2O)C=CC1 [NADH2, nicotinamide adenine dinucleotide in the reduced form]
- Specific Activity [10]: 100 nmoles/min/mg of protein
- suitability as cofactor system / electron donor (in words) [10]: suitable
- soluble methane monooxygenase activity observed [11]: about 70%

Molecule: NC(=O)CI [Iodoacetamide]
- inhibition of soluble methane monooxygenase activity (in words) [1]: inhibit
- Activity (%) [1, 12]: 20%
- Inhibition (%) [1, 13]: 80%

Molecule: C [Methane]
- Rate of Product Formation ([2]; product Methanol, NAD^+, formaldehyde, reduced glutathione, formaldehyde dehydrogenase from Pichia sp., pH 7.0): 128 nmoles/min/mg protein

Molecule: CC(C)O [2-Propanol]
- Rate of Product Formation ([4]; product 2-Butanone, substrates Butane and 2-Propanol, NAD^+, secondary alcohol dehydrogenase): 10 nmoles/ min/mg of protein
- Rate of Product Formation ([6]; product Acetone, substrates Butane and 2-Propanol): 45 nmoles/ min/mg of protein
- Rate of Product Formation ([6]; product Acetone, substrates Isobutylene and 2-Propanol): 45 nmoles/ min/mg of protein

Molecule: C=C [Ethylene]
- Rate of Product Formation ([2]; pH 7): 140 nmoles/min/mg protein
- Rate of Product Formation ([9]; pH 7): 28 nmoles/ min/mg of protein
- Rate of Product Formation ([3]; pH 7): 28 nmoles/ min/mg of protein
- Rate of Product Formation [4]: 25 nmoles/ min/mg of protein

Molecule: NNC(N)=S [Thiosemicarbazide]
- inhibition of soluble methane monooxygenase activity (in words) [1]: not inhibited
- Activity (%) [1, 12]: 108%
- Inhibition (%) [1, 13]: 0%
